Measured values: ChEMBL document CHEMBL4138174, “Design and synthesis of novel C14-urea-tetrandrine derivatives with potent anti-cancer activity” (Eur J Med Chem, 2018)

Columns and labels:
Format in all cases: functional, cell-based
HEL = test: Cytotoxicity against human HEL cells assessed as reduction in cell viability after 48 hrs by MTT assay
K562 = test: Cytotoxicity against human K562 cells assessed as reduction in cell viability after 48 hrs by MTT assay
MDA-MB-231 = test: Cytotoxicity against human MDA-MB-231 cells assessed as reduction in cell viability after 48 hrs by MTT assay
PC-3 = test: Cytotoxicity against human PC3 cells assessed as reduction in cell viability after 48 hrs by MTT assay
[1] = Cytotoxicity against human WM9 cells assessed as reduction in cell viability after 48 hrs by MTT assay

CCCCNC(=O)Nc1cc(OC)c2cc1C[C@H]1c3c(cc(OC)c(OC)c3Oc3cc4c(cc3OC)CCN(C)[C@H]4Cc3ccc(cc3)O2)CCN1C [listing 1 of 2 here]
IC50 (HEL; hel): 2.67 µM
IC50 (K562; k562): 2.77 µM
IC50 (MDA-MB-231; mda-mb-231): 5.28 µM
IC50 (PC-3; pc-3): 0.68 µM
IC50 [1]: 3.66 µM

COc1cc(NC(=O)Nc2cccc3ccccc23)c2cc1Oc1ccc(cc1)C[C@H]1c3cc(c(OC)cc3CCN1C)Oc1c(OC)c(OC)cc3c1[C@H](C2)N(C)CC3
IC50 (HEL; Homo sapiens, HEL, 48 h): 5.21 µM
IC50 (K562; Homo sapiens, K562, 48 h): 1.97 µM
IC50 (MDA-MB-231; Homo sapiens, MDA-MB-231, 48 h): 4.61 µM
IC50 (PC-3; Homo sapiens, PC-3, 48 h): 1.31 µM
IC50 ([1]; Homo sapiens, WM9, 48 h): 3.93 µM

CNC(=O)Nc1cc(OC)c2cc1C[C@H]1c3c(cc(OC)c(OC)c3Oc3cc4c(cc3OC)CCN(C)[C@H]4Cc3ccc(cc3)O2)CCN1C
IC50 (HEL; Homo sapiens, HEL, 48 h): 9.42 µM
IC50 (K562; Homo sapiens, K562, 48 h): 9.21 µM
IC50 (MDA-MB-231; Homo sapiens, MDA-MB-231, 48 h): 14.5 µM
IC50 (PC-3; Homo sapiens, PC-3, 48 h): 1.71 µM
IC50 ([1]; Homo sapiens, WM9, 48 h): 3.09 µM

COc1cc(NC(=O)Nc2ccc(C)cc2)c2cc1Oc1ccc(cc1)C[C@H]1c3cc(c(OC)cc3CCN1C)Oc1c(OC)c(OC)cc3c1[C@H](C2)N(C)CC3
IC50 (HEL; Homo sapiens, HEL, 48 h): 8.08 µM
IC50 (K562; Homo sapiens, K562, 48 h): 2.89 µM
IC50 (MDA-MB-231; Homo sapiens, MDA-MB-231, 48 h): 7.28 µM
IC50 (PC-3; Homo sapiens, PC-3, 48 h): 3.85 µM
IC50 ([1]; Homo sapiens, WM9, 48 h): 5.13 µM

COc1ccc2cc1Oc1ccc(cc1)C[C@H]1c3cc(c(OC)cc3CCN1C)Oc1c(OC)c(OC)cc3c1[C@H](C2)N(C)CC3 [FANCHININ]
IC50 (HEL; Homo sapiens, HEL, 48 h): 16.8 µM
IC50 (K562; Homo sapiens, K562, 48 h): 13.8 µM
IC50 (MDA-MB-231; Homo sapiens, MDA-MB-231, 48 h): 22 µM
IC50 (PC-3; Homo sapiens, PC-3, 48 h): 7.87 µM
IC50 ([1]; Homo sapiens, WM9, 48 h): 11 µM

COc1cc(NC(=O)NC2CCCCC2)c2cc1Oc1ccc(cc1)C[C@H]1c3cc(c(OC)cc3CCN1C)Oc1c(OC)c(OC)cc3c1[C@H](C2)N(C)CC3
IC50 (HEL; Homo sapiens, HEL, 48 h): 14.8 µM
IC50 (K562; Homo sapiens, K562, 48 h): 5.56 µM
IC50 (MDA-MB-231; Homo sapiens, MDA-MB-231, 48 h): 16.6 µM
IC50 (PC-3; Homo sapiens, PC-3, 48 h): 3.78 µM
IC50 ([1]; Homo sapiens, WM9, 48 h): 10.4 µM

CNC(=S)Nc1cc(OC)c2cc1C[C@H]1c3c(cc(OC)c(OC)c3Oc3cc4c(cc3OC)CCN(C)[C@H]4Cc3ccc(cc3)O2)CCN1C
IC50 (HEL; Homo sapiens, HEL, 48 h): 9.19 µM
IC50 (K562; Homo sapiens, K562, 48 h): 7.35 µM
IC50 (MDA-MB-231; Homo sapiens, MDA-MB-231, 48 h): 13.6 µM
IC50 (PC-3; Homo sapiens, PC-3, 48 h): 6.43 µM
IC50 ([1]; Homo sapiens, WM9, 48 h): 7.37 µM

COc1cc(NC(=O)NCCCl)c2cc1Oc1ccc(cc1)C[C@H]1c3cc(c(OC)cc3CCN1C)Oc1c(OC)c(OC)cc3c1[C@H](C2)N(C)CC3
IC50 (HEL; Homo sapiens, HEL, 48 h): 9.34 µM
IC50 (K562; Homo sapiens, K562, 48 h): 6.24 µM
IC50 (MDA-MB-231; Homo sapiens, MDA-MB-231, 48 h): 13.3 µM
IC50 (PC-3; Homo sapiens, PC-3, 48 h): 4.91 µM
IC50 ([1]; Homo sapiens, WM9, 48 h): 4.18 µM

CCCCNC(=S)Nc1cc(OC)c2cc1C[C@H]1c3c(cc(OC)c(OC)c3Oc3cc4c(cc3OC)CCN(C)[C@H]4Cc3ccc(cc3)O2)CCN1C [listing 1 of 2 here]
IC50 (HEL; Homo sapiens, HEL, 48 h): 3.68 µM
IC50 (K562; Homo sapiens, K562, 48 h): 2.39 µM
IC50 (MDA-MB-231; Homo sapiens, MDA-MB-231, 48 h): 5.66 µM
IC50 (PC-3; pc-3): 3.03 µM
IC50 ([1]; Homo sapiens, WM9, 48 h): 4.27 µM

COc1cc(NC(=O)Nc2cccc(Cl)c2)c2cc1Oc1ccc(cc1)C[C@H]1c3cc(c(OC)cc3CCN1C)Oc1c(OC)c(OC)cc3c1[C@H](C2)N(C)CC3
IC50 (HEL; Homo sapiens, HEL, 48 h): 6.47 µM
IC50 (K562; Homo sapiens, K562, 48 h): 2.02 µM
IC50 (MDA-MB-231; Homo sapiens, MDA-MB-231, 48 h): 9.06 µM
IC50 (PC-3; Homo sapiens, PC-3, 48 h): 4.54 µM
IC50 ([1]; Homo sapiens, WM9, 48 h): 3.16 µM

COc1cc(NC(=O)N2CCOCC2)c2cc1Oc1ccc(cc1)C[C@H]1c3cc(c(OC)cc3CCN1C)Oc1c(OC)c(OC)cc3c1[C@H](C2)N(C)CC3
IC50 (HEL; Homo sapiens, HEL, 48 h): 4.67 µM
IC50 (K562; Homo sapiens, K562, 48 h): 4.33 µM
IC50 (MDA-MB-231; Homo sapiens, MDA-MB-231, 48 h): 7.29 µM
IC50 (PC-3; Homo sapiens, PC-3, 48 h): 3.78 µM
IC50 ([1]; Homo sapiens, WM9, 48 h): 5.54 µM

COc1cc(NC(=O)NC2CCCC2)c2cc1Oc1ccc(cc1)C[C@H]1c3cc(c(OC)cc3CCN1C)Oc1c(OC)c(OC)cc3c1[C@H](C2)N(C)CC3
IC50 (HEL; Homo sapiens, HEL, 48 h): 11.6 µM
IC50 (K562; Homo sapiens, K562, 48 h): 6.42 µM
IC50 (MDA-MB-231; Homo sapiens, MDA-MB-231, 48 h): 13.2 µM
IC50 (PC-3; Homo sapiens, PC-3, 48 h): 1.76 µM
IC50 ([1]; Homo sapiens, WM9, 48 h): 6.45 µM

COc1cc(NC(=O)NC(C)(C)C)c2cc1Oc1ccc(cc1)C[C@H]1c3cc(c(OC)cc3CCN1C)Oc1c(OC)c(OC)cc3c1[C@H](C2)N(C)CC3
IC50 (HEL; Homo sapiens, HEL, 48 h): 11.9 µM
IC50 (K562; Homo sapiens, K562, 48 h): 4.89 µM
IC50 (MDA-MB-231; Homo sapiens, MDA-MB-231, 48 h): 12.6 µM
IC50 (PC-3; Homo sapiens, PC-3, 48 h): 2.97 µM
IC50 ([1]; Homo sapiens, WM9, 48 h): 5.37 µM

CCCCNC(=O)Nc1cc(OC)c2cc1C[C@H]1c3c(cc(OC)c(OC)c3Oc3cc4c(cc3OC)CCN(C)[C@H]4Cc3ccc(cc3)O2)CCN1C [listing 2 of 2 here]
IC50 (HEL; Homo sapiens, HEL, 48 h): 4.53 µM
IC50 (K562; k562): 6.88 µM
IC50 (MDA-MB-231; Homo sapiens, MDA-MB-231, 48 h): 5.4 µM
IC50 (PC-3; Homo sapiens, PC-3, 48 h): 0.88 µM
IC50 ([1]; Homo sapiens, WM9, 48 h): 5.12 µM

COc1cc(NC(=S)Nc2ccc(F)cc2)c2cc1Oc1ccc(cc1)C[C@H]1c3cc(c(OC)cc3CCN1C)Oc1c(OC)c(OC)cc3c1[C@H](C2)N(C)CC3
IC50 (HEL; hel): 1.38 µM
IC50 (K562; k562): 0.88 µM
IC50 (MDA-MB-231; mda-mb-231): 1.56 µM
IC50 (PC-3; pc-3): 0.33 µM
IC50 [1]: 1.63 µM

O=c1[nH]cc(F)c(=O)[nH]1 [FLUOROURACIL]
IC50 (HEL; Homo sapiens, HEL, 48 h): 16 µM
IC50 (K562; Homo sapiens, K562, 48 h): 9.49 µM
IC50 (MDA-MB-231; Homo sapiens, MDA-MB-231, 48 h): 17.7 µM
IC50 (PC-3; Homo sapiens, PC-3, 48 h): 19.9 µM
IC50 ([1]; Homo sapiens, WM9, 48 h): 15.8 µM

CCCCNC(=S)Nc1cc(OC)c2cc1C[C@H]1c3c(cc(OC)c(OC)c3Oc3cc4c(cc3OC)CCN(C)[C@H]4Cc3ccc(cc3)O2)CCN1C [listing 2 of 2 here]
IC50 (HEL; hel): 1.96 µM
IC50 (K562; k562): 2.02 µM
IC50 (MDA-MB-231; mda-mb-231): 3.24 µM
IC50 (PC-3; pc-3): 1.05 µM
IC50 [1]: 2.84 µM
